Measurements from US10407429B2, “Pyrazolo[1,5-a]triazin-4-amine derivatives useful in therapy” (Curovir AB, priority 2015, dated 2019).
Where two headings read alike, the source gives them in different places.

Legend:
Assay type in all cases: cell-based
[1] = tested on: coxsackie B3 virus; test: Antiviral CPE assay in mammalian cell culture; conditions: Enterovirus B
[2] = tested on: Enterovirus 71; test: Antiviral CPE assay in mammalian cell culture; conditions: Enterovirus A, EV71, prevention of viral CPE, read-out: inhibition capacity (IC50) EV71
[3] = tested on: coxsackie B 4 virus; test: Antiviral CPE assay in mammalian cell culture; conditions: Enterovirus B
[4] = tested on: coxsackie B2 virus; test: Antiviral CPE assay in mammalian cell culture; conditions: read-out: inhibition capacity (IC50) B2
[5] = tested on: polio virus Sabin 1; test: organism not typed; conditions: read-out: inhibition capacity (IC50) Polio 1
[6] = tested on: coxsackie B1 virus; test: Antiviral CPE assay in mammalian cell culture; conditions: read-out: inhibition capacity (IC50) Bl
[7] = tested on: Enterovirus 68; test: Antiviral CPE assay in mammalian cell culture; conditions: Enterovirus D
[8] = tested on: Enterovirus 30; test: Antiviral CPE assay in mammalian cell culture; conditions: read-out: inhibition capacity (IC50) EV30
[9] = tested on: coxsackie B5virus; test: Antiviral CPE assay in mammalian cell culture; conditions: read-out: inhibition capacity (IC50) B5
[10] = tested on: Enterovirus 6; test: Antiviral CPE assay in mammalian cell culture; conditions: prevention of viral CPE, read-out: inhibition capacity (IC50) EV6
[11] = B3, read-out: inhibition capacity (IC50) B3
[12] = B4, read-out: inhibition capacity (IC50) B4
[13] = EV68, read-out: inhibition capacity (IC50) EV68

Row | SMILES | IC50 [1, 11] | IC50 [2] | IC50 [3, 12] | IC50 [4] | IC50 [5] | IC50 [6] | IC50 [7, 13] | IC50 ([8]; Enterovirus) | IC50 [9] | IC50 [10] | IC50 ([1]; prevention of viral CPE, mammalian cell culture, coxsackie B3 virus, read-out: inhibition capacity (IC50) B3) | IC50 ([3]; prevention of viral CPE, mammalian cell culture, coxsackie B4 virus, read-out: inhibition capacity (IC50) B4) | IC50 ([4]; prevention of viral CPE, mammalian cell culture, coxsackie B2 virus) | IC50 ([6]; prevention of viral CPE, mammalian cell culture, coxsackie B1 virus) | IC50 ([7]; EV68, prevention of viral CPE, mammalian cell culture, Enterovirus 68, read-out: inhibition capacity (IC50) EV68) | IC50 ([8]; prevention of viral CPE, mammalian cell culture, Enterovirus 30) | IC50 ([9]; prevention of viral CPE, mammalian cell culture, coxsackie B5 virus)
1 | COc1ccc(-c2c(C)nn3c(NCc4cccc(S(C)(=O)=O)c4)nc(C)nc23)cc1OC [Example 11, 8-(3,4-dimethoxyphenyl)-2,7-dimethyl-N-[(3-methylsulfonylphenyl)methyl]pyrazolo[1,5-a][1,3,5]triazin-4-amine] | < 10 nM | < 100 nM | < 10 nM | < 10 nM | < 10 nM | < 10 nM | < 100 nM | < 10 nM | < 10 nM | < 100 nM | – | – | – | – | – | – | –
2 | COc1ccc(-c2c(C)nn3c(NCc4ccc(Cl)cc4)nc(C)nc23)cc1OC [Example 8, N-[(4-chlorophenyl)methyl]-8-(3,4-dimethoxyphenyl)-2,7-dimethyl-pyrazolo[1,5-a][1,3,5]triazin-4-amine] | < 100 nM | < 1000 nM | < 100 nM | < 100 nM | < 100 nM | < 100 nM | < 100 nM | < 100 nM | < 1000 nM | < 1000 nM | – | – | – | – | – | – | –
3 | CNS(=O)(=O)c1ccc(CNc2nc(C)nc3c(-c4ccc(OC)c(OC)c4)c(C)nn23)cc1 [Example 26, N-methyl-4-[[[8-(3,4-dimethoxyphenyl)-2,7-dimethyl-pyrazolo[1,5-a][1,3,5]triazin-4-yl]amino]methyl]benzenesulfonamide] | < 1000 nM | < 1000 nM | < 100 nM | < 100 nM | < 100 nM | < 1000 nM | > 1000 nM | < 1000 nM | < 1000 nM | < 1000 nM | – | – | – | – | – | – | –
4 | COc1ccc(-c2c(C)nn3c(NCc4ccc(C(F)(F)F)cc4)nc(C)nc23)cc1OC [Example 2, 8-(3,4-dimethoxyphenyl)-2,7-dimethyl-N-[[4-(trifluoromethyl)phenyl]methyl]pyrazolo[1,5-a][1,3,5]triazin-4-amine] | < 1000 nM | < 1000 nM | < 100 nM | < 100 nM | < 100 nM | < 100 nM | < 1000 nM | < 100 nM | < 100 nM | < 1000 nM | – | – | – | – | – | – | –
5 | COc1ccc(-c2c(C)nn3c(NCC4CCCCC4)nc(C)nc23)cc1OC [Example 15, N-(cyclohexylmethyl)-8-(3,4-dimethoxyphenyl)-2,7-dimethyl-pyrazolo[1,5-a][1,3,5]triazin-4-amine] | < 1000 nM | < 1000 nM | < 1000 nM | < 1000 nM | < 1000 nM | < 1000 nM | < 1000 nM | < 1000 nM | < 1000 nM | < 1000 nM | – | – | – | – | – | – | –
6 | COc1ccc(-c2c(C)nn3c(NCC4CCNCC4)nc(C)nc23)cc1OC [Example 29, 8-(3,4-dimethoxyphenyl)-2,7-dimethyl-N-[(piperidin-4-yl)methyl]pyrazolo[1,5-a][1,3,5]triazin-4-amine] | > 1000 nM | > 1000 nM | > 1000 nM | > 1000 nM | > 1000 nM | > 1000 nM | > 1000 nM | > 1000 nM | > 1000 nM | > 1000 nM | – | – | – | – | – | – | –
7 | COC(=O)NS(=O)(=O)c1ccc(CNc2nc(C)nc3c(-c4ccc(OC)c(OC)c4)c(C)nn23)cc1 [Example 24, methyl N-[4-[[[8-(3,4-dimethoxyphenyl)-2,7-dimethyl-pyrazolo[1,5-a][1,3,5]triazin-4-yl]amino]methyl]phenyl]sulfonylcarbamate] | > 1000 nM | < 1000 nM | < 1000 nM | < 1000 nM | < 1000 nM | > 1000 nM | < 1000 nM | > 1000 nM | > 1000 nM | > 1000 nM | – | – | – | – | – | – | –
8 | COc1ccc(-c2c(C)nn3c(NCc4cnco4)nc(C)nc23)cc1OC [Example 28, 8-(3,4-dimethoxyphenyl)-2,7-dimethyl-N-[(1,3-oxazol-5-yl)methyl]pyrazolo[1,5-a][1,3,5]triazin-4-amine] | < 100 nM | < 100 nM | < 100 nM | < 100 nM | < 100 nM | < 100 nM | < 10 nM | > 1000 nM | < 1000 nM | < 100 nM | – | – | – | – | – | – | –
9 | COc1ccc(-c2c(C)nn3c(NCc4ccnnc4)nc(C)nc23)cc1OC [Example 31, 8-(3,4-dimethoxyphenyl)-2,7-dimethyl-N-[(pyridazin-4-yl)methyl]pyrazolo[1,5-a][1,3,5]triazin-4-amine] | < 1000 nM | < 100 nM | < 10 nM | < 1000 nM | < 1000 nM | < 1000 nM | < 100 nM | > 1000 nM | < 1000 nM | < 1000 nM | – | – | – | – | – | – | –
10 | COc1ccc(-c2c(C)nn3c(NCc4ccccn4)nc(C)nc23)cc1OC [Example 5, 8-(3,4-dimethoxyphenyl)-2,7-dimethyl-N-(2-pyridylmethyl)pyrazolo[1,5-a][1,3,5]triazin-4-amine] | < 1000 nM | < 1000 nM | < 1000 nM | < 100 nM | < 100 nM | < 100 nM | < 1000 nM | < 1000 nM | < 1000 nM | < 1000 nM | – | – | – | – | – | – | –
11 | COc1ccc(-c2c(C)nn3c(NCc4ccc(C)o4)nc(C)nc23)cc1OC [Example 23, 8-(3,4-dimethoxyphenyl)-2,7-dimethyl-N-[(5-methyl-2-furyl)methyl]pyrazolo[1,5-a][1,3,5]triazin-4-amine] | < 100 nM | < 100 nM | < 10 nM | < 100 nM | < 10 nM | < 10 nM | < 100 nM | < 100 nM | < 100 nM | < 100 nM | – | – | – | – | – | – | –
12 | COc1ccc(-c2c(C)nn3c(NCc4ccc(C)nc4)nc(C)nc23)cc1OC [Example 32, 8-(3,4-dimethoxyphenyl)-2,7-dimethyl-N-[(6-methylpyridin-3-yl)methyl]pyrazolo[1,5-a][1,3,5]triazin-4-amine] | – | < 100 nM | – | – | < 100 nM | – | – | – | – | < 100 nM | < 10 nM | < 100 nM | < 100 nM | < 100 nM | < 100 nM | < 10 nM | < 100 nM
13 | COc1ccc(-c2c(C)nn3c(NCc4ccc5c(c4)OCO5)nc(C)nc23)cc1OC [Example 16, N-(1,3-benzodioxol-5-ylmethyl)-8-(3,4-dimethoxyphenyl)-2,7-dimethyl-pyrazolo[1,5-a][1,3,5]triazin-4-amine] | < 100 nM | < 100 nM | < 10 nM | < 100 nM | < 100 nM | < 100 nM | < 100 nM | < 100 nM | < 100 nM | < 1000 nM | – | – | – | – | – | – | –
14 | COc1ccc(-c2c(C)nn3c(NCc4ccc(NS(C)(=O)=O)cc4)nc(C)nc23)cc1OC [Example 19, N-[4-[[[8-(3,4-dimethoxyphenyl)-2,7-dimethyl-pyrazolo[1,5-a][1,3,5]triazin-4-yl]amino]methyl]phenyl]methanesulfonamide] | < 100 nM | < 10 nM | < 10 nM | < 100 nM | < 100 nM | < 100 nM | < 100 nM | < 100 nM | < 1000 nM | < 1000 nM | – | – | – | – | – | – | –
15 | COc1ccc(CNc2nc(C)nc3c(-c4ccc(OC)c(OC)c4)c(C)nn23)cc1 [Example 10, 8-(3,4-dimethoxyphenyl)-N-[(4-methoxyphenyl)methyl]-2,7-dimethyl-pyrazolo[1,5-a][1,3,5]triazin-4-amine] | < 1000 nM | < 1000 nM | < 100 nM | < 100 nM | < 100 nM | < 100 nM | < 100 nM | < 100 nM | < 100 nM | < 1000 nM | – | – | – | – | – | – | –
